Reference: ChEMBL document CHEMBL3507680, “University of Dundee, Gates Library screen for HepG2 cell viability”

Assay: Human HepG2 cell viability assay in 384 well format
Type: toxicity, cell-based
Design: dose 125 nL, time 70.5 hour; concentration not given beside the values
Conditions: HepG2 cells, read-out: Inhibition

| SMILES | cytotoxicity at 70.5 h [%] |
| --- | --- |
| CS(=O)(=O)N1Cc2nccn2CC(Cn2ncccc2=O)C1 (configuration not stated) | 3.97 |
| O=C(c1ccccn1)N1Cc2nccn2CC(COc2cccnc2)C1 (configuration not stated) | 22.8 |
| CC1c2ncc(Cn3cncn3)n2CCN1C(=O)C1CCOCC1 (configuration not stated) | -2.59 |
| COCC(=O)N1CC[C@H]2C[C@@H](c3nnc(C4CC4)o3)O[C@@H]2C1 | 5.55 |
| CN(Cc1ccccn1)C1COC2(CCN(Cc3nccs3)CC2)C1 (configuration not stated) | 15.3 |
| Cn1cccc1C(=O)N1CCN(CC2CC2)c2ncccc2C1 | 2.74 |
| Cn1cccc1C(=O)N1CCc2ncc(Cn3cccn3)n2CC1 | 16.9 |
| CCNC(=O)c1nc2c(s1)CCCN2S(C)(=O)=O | 28.7 |
| FC(F)(F)c1cc(N2CCc3ncnc(NC4CC4)c3CC2)ncn1 | 5.67 |
| CN(C)CC(=O)N1CCOCC2(C1)CN(c1ccccc1)C(=O)CO2 (configuration not stated) | -45.3 |
| Cc1nc(CN2C[C@@H]3OCCN(c4ncc(F)cn4)[C@@H]3C2)cs1 | -11.3 |
| COCCN1CCN(C(=O)C2CC=CC2)Cc2cccnc21 | -12 |
| COCCN1C(=O)[C@]2(CC[C@@H]3CN(C(=O)NC4CCCC4)C[C@@H]32)N=C1C | -14.1 |
| CN1CCC(c2cnc(NCc3nccn3C)cn2)CC1 | 17.9 |
| CCCn1nccc1-c1nccnc1CC1CCN(C(C)=O)C1 (configuration not stated) | -2.05 |
| Cc1nc(-c2ccc(CNS(=O)(=O)N(C)C)cc2)ccc1C(N)=O | -2.19 |
| CC(C)C(=O)N1CCC(c2c(C(N)=O)sc3ccccc23)C1 (configuration not stated) | 18.5 |
| COCC(=O)N1CCCC(c2nc(N)ncc2-c2cccc(F)c2)C1 (configuration not stated) | 2.19 |
| CN(C)S(=O)(=O)N1CCC(c2ccnc(Nc3ccccn3)n2)C1 (configuration not stated) | -0.703 |
| CN(C)c1cc(C2CCCN(C(=O)c3noc4c3CCCC4)C2)ccn1 (configuration not stated) | -1.31 |
| O=C(c1noc2c1CCCC2)N1CCCC(c2nccs2)C1 (configuration not stated) | -3.76 |
| Cc1cc(C)n(-c2nc(C(=O)NCCS(=O)(=O)N3CCCCC3)cs2)n1 | -2.01 |
| O=C(NCC1CCOCC1)c1cc(-c2ccncc2)c2cnccc2n1 | -2.01 |

| SMILES | cytotoxicity at 70.5 h [%] |
| --- | --- |
| CC(=O)Nc1ccc(CCC2(NC(=O)C3CCCO3)CCCCC2)cn1 (configuration not stated) | -0.834 |
| Cc1nc(C(=O)N2CCC(c3cc(CCO)n(C)n3)C2)co1 (configuration not stated) | 16.6 |
| COCC(=O)N1CCCC(c2nc(N(C)C)ncc2-c2ccccc2)C1 (configuration not stated) | 4.41 |
| COCCC(=O)N1CCC(c2ccc3c(NC(C)C)n[nH]c3n2)C1 (configuration not stated) | -6.39 |
| Cc1cc(Cc2ccccc2C)cc(C2CCCNC2)n1 (configuration not stated) | -4.93 |
| CCS(=O)(=O)N1C[C@@H](O)[C@H](Oc2cccc(F)c2)C1 | -9.71 |
| O=C(O)c1ccccc1-c1ccc(CN2CCOCC2)cn1 | -7.9 |
| Cc1cc(Cc2ccccc2)cc(C2CCCNC2)n1 (configuration not stated) | -5.23 |
| Cc1ncc(CN)c(-c2cn(C)c3ccccc23)n1 | -7.92 |
| O=C(O)c1ccccc1-c1ccc(CN2CCC(CO)CC2)cn1 | -9.48 |
| CNc1cc(C2CCN2c2ncccn2)nc(C)n1 (configuration not stated) | -6.05 |
| CNC(=O)C1(C)CN(c2nnc(C)c3ccccc23)CCO1 (configuration not stated) | -6.81 |
| CC(C)(C)OC(=O)N1CCn2c(nnc2C2CCCNC2)C1 (configuration not stated) | 6.76 |
| CC(=O)N1CCC(CCc2ccnc(Nc3ccccn3)c2)CC1 | 26.8 |
| Cn1cnc2ccc(NC(=O)CC3CCN(S(C)(=O)=O)CC3)cc21 | 12 |
| CCn1c(C)nc2cc(NC(=O)CC3CCN(S(C)(=O)=O)CC3)ccc21 | -18.6 |
| O=C(O)c1ccccc1-c1ccc(CNC(=O)C2CCOCC2)cc1 | -4.99 |
| Cc1n[nH]c(C)c1CC(=O)N1CCC(O)(CN2CCOCC2)C1 (configuration not stated) | -12.6 |
| CC(=O)N1CCCC(C(=O)c2cnn(-c3ccc(F)cc3)c2N)C1 (configuration not stated) | -2.75 |
| COCC(=O)N1CCCC(C(=O)c2cnn(-c3ccc(F)cc3)c2N)C1 (configuration not stated) | 9.29 |
| CCOc1ccc(CN2CCC(c3[nH]ncc3C)C2)cc1CO (configuration not stated) | -7.99 |
| Cc1ccnc(NC(=O)c2cnc(C3CCCNC3)cn2)c1 (configuration not stated) | -4.33 |
| Nc1no[n+]([O-])c1C(=O)NCc1ccco1 | 7.08 |

| SMILES | cytotoxicity at 70.5 h [%] |
| --- | --- |
| Cc1ccc(N2CC(c3nccc(C)n3)C2)nn1 | 9.5 |
| O=C(c1cc(-c2cccnc2)[nH]n1)N1CCCC(Cc2ccccn2)C1 (configuration not stated) | 9.07 |
| CS(=O)(=O)c1cncnc1C1CCCN(C(=O)NCc2ccccc2)C1 (configuration not stated) | -6.21 |
| CCc1nccn1CC(=O)Nc1cccc(N2CCCC2)c1 | 9.22 |
| CC(C)(C)c1ccc(OCC(=O)O)c(CN2C[C@H]3C[C@H](O)C[C@H]3C2)c1 | 2.38 |
| Cc1cc(C(=O)N2CCOCC2c2nc(C)c[nH]2)nc(O)n1 (configuration not stated) | 3.31 |
| CCN(Cc1cccnc1)CC1(C)Cc2c(N)nc(N)nc2O1 (configuration not stated) | -1.96 |
| CC(=O)N1CCC(c2nccnc2C)CC1 | -1.76 |
| CC(=O)N1CCCC1(C)c1nc(C)no1 (configuration not stated) | 0.978 |
| Cc1nccnc1C1CCN(C(=O)C(C)C)CC1 | -5.9 |
| CN1C[C@@H](c2cccc(F)c2)[C@H]2[C@H]1CCCCCN2C(=O)C1CC1 | 2.38 |
| CCC(=O)N1CCCCC[C@@H]2[C@@H]1[C@H](c1cccc(F)c1)CN2C | 16.4 |
| CCc1cc(C(F)(F)F)n2nc(C3CCCN3C(=O)COC)cc2n1 (configuration not stated) | -4.23 |
| Cn1nc(C2CC2)cc1C(=O)N1CCC(c2nnsc2S(C)(=O)=O)CC1 | -4.78 |
| O=C1NC2(CCc3ccccc31)CCN(Cc1cccnc1)C2 (configuration not stated) | 3.7 |
| Cc1ccc2c(c1)c(C)cc(=O)n2CC(=O)O | -2.86 |
| Cc1cc(C(F)(F)F)n2nc(C3CCCN(S(C)(=O)=O)C3)cc2n1 (configuration not stated) | -2.03 |
| O=C1NC2(CCN(C(=O)CN3CCOCC3)CC2)Nc2ccc(Cl)cc21 | -2.29 |
| Cc1c(CNC2CCN(c3ccccc3OC(F)F)C2)cnn1C (configuration not stated) | -3.92 |
| O=c1oc2ccccc2n1CCN(CC1CCOC1)C1CC1 (configuration not stated) | -11.1 |
| Cc1cc(C)n(Cc2cccc(C(=O)N3CCOCC3(C)C)c2)n1 | -10 |
| Cc1noc(CN2CCN(C(C)C(=O)NCc3cccs3)CC2)n1 (configuration not stated) | 13.6 |
| CC(C)(C)n1ncc(NCc2ccccc2)c(Cl)c1=O | 22.2 |

| SMILES | cytotoxicity at 70.5 h [%] |
| --- | --- |
| O=C(NCCNC(=O)C1CCN(c2ncccn2)CC1)c1ccoc1 | 6.55 |
| CC(C)CN1CCC(C(=O)NCCNC(=O)c2ccco2)CC1 | -5.07 |
| O=C(NCCNC(=O)C1CCN(CC(F)(F)F)CC1)c1ccoc1 | -4.81 |
| CN1CCN(C(=O)Cc2csc(-c3ccsc3)n2)C(c2ccccc2)C1 (configuration not stated) | -3.75 |
| CC(NCc1ccccn1)c1ccc(N2CCN(C)CC2)c(F)c1 (configuration not stated) | 11.1 |
| CC(C)NC(=O)CN(C)C(=O)c1c(Cl)c2ccccc2n1C | -0.0324 |
| CC(C)c1nc(CC(=O)N2CCN(C)CC2c2ccccc2)cs1 (configuration not stated) | 12.9 |
| CCC(Nc1ncccn1)c1ccc(OC)cc1 (configuration not stated) | 6.83 |
| N#Cc1ccc(S(=O)(=O)Nc2ccc(N3CCOCC3)cn2)cc1 | 0.03 |
| Cc1cnn(CC2CCN(CC(O)c3ccccc3F)CC2)c1 (configuration not stated) | 8.3 |
| N#Cc1cnn(C(=O)COc2ccccc2F)c1N | 1.04 |
| CN(C)CCOc1cc(NC(=O)COCC(F)(F)F)ccn1 | -2.8 |
| Cc1cc(C(F)(F)F)nc(N(C)Cc2c(C)noc2C)n1 | 13.3 |
| Cc1ccc(C(=O)N2CCc3c(CNS(C)(=O)=O)cncc3C2)o1 | 0.323 |
| O=C(NCC1CCCO1)c1cc(-c2ccncc2)c2cnccc2n1 (configuration not stated) | -8.71 |
| CNC[C@H]1CC[C@H](c2cc(CN(C)C(=O)c3cnccn3)n(C)n2)CC1 | -8.17 |
| COc1ccccc1Cc1cncc(N2CC(C(=O)O)C2)n1 | -13.5 |
| c1nnc(Nc2cncc(C3CCCN3)n2)s1 (configuration not stated) | -7.63 |
| O=C(O)C1(Cc2ccc(-c3cccs3)cc2)CCNC1 (configuration not stated) | -2.56 |
| COc1cc2c(cc1CNC(Cc1cccs1)c1nccs1)OCO2 (configuration not stated) | 18.9 |
| Cc1cc2c(cc1CNC(Cc1cccs1)c1nccs1)OCO2 (configuration not stated) | 1.05 |
| Cc1ccc(CNC(C)c2ccc(N3CCN(C)CC3)c(F)c2)o1 (configuration not stated) | 0.0517 |
| CC(C)(CN)NS(=O)(=O)c1cccc(F)c1F | 9.16 |

| SMILES | cytotoxicity at 70.5 h [%] |
| --- | --- |
| CCS(=O)(=O)N1CCc2c(CN(C)Cc3ccco3)cncc2C1 | -6.14 |
| O=C1CC(c2ccccc2)C2(CCN(CC3CC3)CC2)N1 (configuration not stated) | -5.14 |
| O=C(NCc1ccco1)[C@H]1C[C@@H]2CCN(c3ccncn3)C[C@@H]2O1 | -5.88 |
| Fc1ccc(CN2CCO[C@H]3[C@H](OCC4CC4)CC[C@@H]32)cc1 | -4.72 |
| CCN1CCC2(CC1)CC(NC(=O)N(C)C)c1cc(C)ccc12 (configuration not stated) | 1.47 |
| Cn1nccc1-c1ccc2nc(C3CCN(CCO)CC3)nn2c1 | -2.61 |
| O=C(N1CCCO1)[C@@]12CCO[C@@H]1CCN(C1CCCCC1)C2 | 14 |
| Cc1ccc(CN2C[C@@H]3COC[C@H](NS(C)(=O)=O)[C@@H]3C2)o1 | -12.4 |
| Cc1nc(N2CCOCC2)nc2c1CCN(Cc1cccnc1)CC2 | -17.8 |
| COCCN1C[C@@H](C)[C@@]2(COCCN(C(=O)c3cnc(C)cn3)C2)C1 | -5.26 |
| CC(=O)N1CCOCC2(CCN(Cc3ccc(C)s3)CC2)C1 | -4.66 |
| Cc1ncnc2c1CCN(Cc1cccs1)CC2 | 22.9 |
| O=C(NC1CC1)[C@H]1C[C@H]2OCC[C@H]2N(CC2CC2)C1 | 13.9 |
| Cc1nc(Nc2nncs2)cc(C2CNC2)n1 | -5.34 |
| COCC1c2c(cnn2CC2CC2)CCN1Cc1cccs1 (configuration not stated) | -2.83 |
| Cn1cc(CN2CC[C@H]3CO[C@H](CNc4ncccn4)[C@H]3C2)cn1 | 20.3 |
| Cn1cc(CN2C[C@@H]3COC[C@]3(C(=O)NCc3ccccn3)C2)cn1 | -17.5 |
| COCc1cnc2n1CCN(Cc1cccnc1)C2C (configuration not stated) | -17.6 |
| CO[C@H]1CCN(S(=O)(=O)c2cn(C)cn2)[C@H]1Cc1cccnc1 | -22.4 |
| CN(Cc1cccnc1)[C@@H]1CN(CC2CC2)[C@@H]2CCCO[C@H]12 | -2.78 |
